# Patent US20100317850A1 (priority 2008, published 2010)
# System: Aβ42 production
# Assay: Quantification of Aβ peptide in culture of neurons from rat fetus brain (Aβ ELISA)
# Assay type: cell-based
# Settings: Neuron, 72 h; rat primary neuronal culture (cerebral cortex, embryonic day 18 Wistar rats); medium collected three days after addition of the compound; Aβx-42 ELISA; read-out: Aβ42 production reducing effect IC50
# Method in brief: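 Primary cortical neurons from embryonic day 18 Wistar rats were cultured 4 days, then exposed to compound in Neurobasal/B27 without 2-ME, final DMSO ≤1%. After three days, medium was collected and Aβx-42 measured undiluted by sandwich ELISA.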
row,Compound,IC50 [nM]
1,"NC1=N[C@@]2(c3cc(NC(=O)c4cnc(C(F)F)cn4)ccc3F)CO[C@H](CF)[C@H]2CS1 [Example 73, N-[3-((4aS,5S,7aS)-2-amino-5-fluoromethyl-4a,5-dihydro-4H-furo[3,4-d][1,3]thiazin-7a-yl)-4-fluorophenyl]-5-difluoromethylpyrazine-2-carboxamide]",7
2,"NC1=N[C@@]2(c3cc(NC(=O)c4ncc(F)cc4F)ccc3F)CCC[C@H]2CS1 (single isomer, unassigned) [Example 168, N-[3-((4aR*,7aS*)-2-amino-4a,5,6,7-tetrahydro-4H-cyclopenta[d][1,3]thiazin-7a-yl)-4-fluorophenyl]-3,5-difluoropyridine-2-carboxamide]",16
3,"CO[C@H]1C[C@H]2CSC(N)=N[C@@]2(c2cc(NC(=O)c3ccc(C#N)cn3)ccc2F)C1 (relative stereo) [Example 31, (+)-N-[3-((4aR*,6S*,7aS*)-2-amino-6-methoxy-4a,5,6,7-tetrahydro-4H-cyclopenta[d][1,3]thiazin-7a-yl)-4-fluorophenyl]-5-cyanopyridine-2-carboxamide]",4
4,"NC1=N[C@@]2(c3cc(NC(=O)c4ccc(C(F)(F)F)cn4)ccc3F)CCCCC[C@H]2CS1 (single isomer, unassigned) [Example 250, N-[3-((4aR*,9aS*)-2-amino-4a,5,6,7,8,9-hexahydro-4H-cyclohepta[d][1,3]thiazin-9a-yl)-4-fluorophenyl]-5-trifluoromethylpyridine-2-carboxamide]",27
5,"COC[C@H]1OC[C@]2(c3cc(NC(=O)c4ccc(C#N)cn4)ccc3F)N=C(N)SC[C@H]12 [Example 66, N-[3-((4aS,5S,7aS)-2-amino-5-methoxymethyl-4a, 5-dihydro-4H-furo[3,4-d][1,3]thiazin-7a-yl)-4-fluorophenyl]-5-cyanopyridine-2-carboxamide]",1.3
6,NC1=N[C@@]2(c3cccc(-c4cccnc4F)c3)CN(c3cccc(F)n3)C[C@H]2CS1 [Example 88],75
7,"NC1=N[C@@]2(c3cc(NC(=O)c4ccc(-c5nccs5)cn4)ccc3F)CCC[C@H]2CS1 (single isomer, unassigned) [Example 133, N-[3-((4aR*,7aS*)-2-amino-4a,5,6,7-tetrahydro-4H-cyclopenta[d][1,3]thiazin-7a-yl)-4-fluorophenyl]-5-thiazol-2-yl-pyridine-2-carboxamide]",63
8,"NC1=N[C@@]2(c3cc(NC(=O)c4cnc(OC(F)F)cn4)ccc3F)CCOC[C@H]2CS1 (relative stereo) [Example 29, N-[3-((4aS*,8aS*)-2-amino-4a,5,7,8-tetrahydro-4H-6-oxa-3-thia-1-azanaphthalen-8a-yl)-4-fluorophenyl]-5-difluoromethoxypyrazine-2-carboxamide]",4
9,"C[C@H]1OC[C@]2(c3cc(NC(=O)c4ccncn4)ccc3F)N=C(N)SC[C@H]12 (relative stereo) [Example 60, N-[3-((4aS*,5R*,7aS*)-2-amino-5-methyl-4a,5-dihydro-4H-furo[3,4-d][1,3]thiazin-7a-yl)-4-fluorophenyl]-pyrimidine-4-carboxamide]",12
10,"COC[C@H]1C[C@]2(c3cc(NC(=O)c4cnc(OCF)cn4)ccc3F)N=C(N)SC[C@@H]2CO1 [Example 38, N-[3-((4aS,7R,8aS)-2-amino-7-methoxymethyl-4a,5,7,8-tetrahydro-4H-6-oxa-3-thia-1-azanaphthalen-8a-yl)-4-fluorophenyl]-5-fluoromethoxypyrazine-2-carboxamide]",6
11,"COc1ccc(C(=O)Nc2ccc(F)c([C@]34CCC[C@H]3CSC(N)=N4)c2)nc1 (single isomer, unassigned) [Example 174, N-[3-((4aR*,7aS*)-2-amino-4a,5,6,7-tetrahydro-4H-cyclopenta[d][1,3]thiazin-7a-yl)-4-fluorophenyl]-5-methoxypyridine-2-carboxamide]",11
12,"N#Cc1ccc(C(=O)Nc2ccc(F)c([C@]34CCOC[C@H]3CSC(N)=N4)c2)nc1 (single isomer, unassigned) [Example 28, N-[3-((4aS*,8aS*)-2-amino-4a,7,8-tetrahydro-4H-6-oxa-3-thia-1-azanaphthalen-8a-yl)-4-fluorophenyl]-5-cyanopyridine-2-carboxamide]",12
13,"NC1=N[C@@]2(c3cc(NC(=O)c4cnc(OCF)cn4)ccc3F)COC[C@H]2CS1 (single isomer, unassigned) [Example 27, N-[3-((7S*,7aS*)-2-amino-4a,5-dihydro-4H-furo[3,4-d][1,3]thiazin-7a-yl)-4-fluorophenyl]-5-fluoromethoxypyrazine-2-carboxamide]",11
14,"NC1=N[C@@]2(c3cc(NC(=O)c4ncc(C(F)(F)F)cc4Cl)ccc3F)CCC[C@H]2CS1 (single isomer, unassigned) [Example 184, N-[3-((4aR*,7aS*)-2-amino-4a,5,6,7-tetrahydro-4H-cyclopenta[d][1,3]thiazin-7a-yl)-4-fluorophenyl]-3-chloro-5-trifluoromethyl-pyridine-2-carboxamide]",13
15,NC1=N[C@@]2(c3cc(NC(=O)c4ccccn4)ccc3F)CCCC[C@H]2CS1 [Example 255],158
16,"CC[C@H]1OC[C@]2(c3cc(NC(=O)c4ccc(Cl)cn4)ccc3F)N=C(N)SC[C@H]12 (relative stereo) [Example 51, N-[3-((4aS*,5R*,7aS*)-2-amino-5-ethyl-4a,5-dihydro-4H-furo[3,4-d][1,3]thiazin-7a-yl)-4-fluorophenyl]-5-chloropyridine-2-carboxamide]",1.6
17,"CO[C@@H]1C[C@H]2CSC(N)=N[C@@]2(c2cc(NC(=O)c3ccc(C#N)cn3)ccc2F)C1 (relative stereo) [Example 32, (+)-N-[3-((4aR*,6R*,7aS*)-2-amino-6-methoxy-4a,5,6,7-tetrahydro-4H-cyclopenta[d][1,3]thiazin-7a-yl)-4-fluorophenyl]-5-cyanopyridine-2-carboxamide]",1.1
18,"CO[C@@H]1CC[C@]2(c3cc(NC(=O)c4cnc(C(F)F)cn4)ccc3F)N=C(N)SC[C@@H]2C1 (relative stereo) [Example 207, N-[3-((4aR*,6R*,8aS*)-2-amino-6-methoxy-4,4a,5,6,7,8-hexahydrobenzo[d][1,3]thiazin-8a-yl)-4-fluorophenyl]-5-difluoromethylpyrazine-2-carboxamide]",3
19,"CO[C@@H]1CC[C@]2(c3cc(NC(=O)c4ccc(C#N)cn4)ccc3F)N=C(N)SC[C@@H]2C1 (relative stereo) [Example 206, N-[3-((4aR*,6R*,8aS*)-2-amino-6-methoxy-4,4a,5,6,7,8-hexahydrobenzo[d][1,3]thiazin-8a-yl)-4-fluorophenyl]-5-cyanopyridine-2-carboxamide]",2
20,NC1=N[C@@]2(c3cc(NC(=O)c4ncc(Br)cn4)ccc3F)CCCC[C@H]2CS1 [Example 120],38
21,"N#Cc1ccc(C(=O)Nc2ccc(F)c([C@]34COC[C@H]3CSC(N)=N4)c2)nc1 (relative stereo) [Example 24, N-[3-((4aS*,7aS*)-2-amino-4a,5-dihydro-4H-furo[3,4-d][1,3]thiazin-7a-yl)-4-fluorophenyl]-5-cyanopyridine-2-carboxamide]",4.3
22,"NC1=N[C@@]2(c3cc(NC(=O)c4ccc(F)cn4)ccc3F)CCOC[C@H]2CS1 (single isomer, unassigned) [Example 187, N-[3-((4aS*,8aS*)-2-amino-4a,5,7,8-tetrahydro-4H-6-oxa-3-thia-1-azanaphthalen-8a-yl)-4-fluorophenyl]-5-fluoropyridine-2-carboxamide]",54
23,"N#Cc1cccc(-c2cccc([C@]34CN(c5cnccn5)C[C@H]3CSC(N)=N4)c2)c1 (racemic) [Example 229, (±)-3′44aR*,7aS*)-2-amino-6-pyrazin-2-yl-4a,5,6,7-tetrahydro-4H-pyrrolo[3,4-d][1,3]thiazin-7a-yl)biphenyl-3-carbonitrile]",544
24,Cc1ccc(C(=O)Nc2ccc(F)c([C@]34CCCC[C@H]3CSC(N)=N4)c2)nc1 [Example 225],198
25,NC1=N[C@@]2(c3cc(NC(=O)c4ccc(Cl)cn4)ccc3OC(F)(F)F)CCOC[C@H]2CS1 (racemic) [Example 149],414
26,"N#Cc1ccc(C(=O)Nc2ccc(F)c([C@]34C[C@H](F)C[C@H]3CSC(N)=N4)c2)nc1 (relative stereo) [Example 91, (+)-N-[3-((4aR*,6R*,7aS*)-2-amino-6-fluoro-4a,5,6,7-tetrahydro-4H-cyclopenta[d][1,3]thiazin-7a-yl)-4-fluorophenyl]-5-cyanopyridine-2-carboxamide]",1.4
27,"NC1=N[C@@]2(c3cc(NC(=O)c4ccc(Cl)cn4)ccc3F)CO[C@H](CF)[C@H]2CS1 [Example 71, N-[3-((4aS,5S,7aS)-2-amino-5-fluoromethyl-4a,5-dihydro-4H-furo[3,4-d][1,3]thiazin-7a-yl)-4-fluorophenyl]-5-chloropyridine-2-carboxamide]",1
28,"NC1=N[C@@]2(c3cc(NC(=O)c4cnc(OC(F)F)cn4)ccc3F)CCC[C@H]2CS1 (single isomer, unassigned) [Example 20, N-[3-((4aR*,7aS*)-2-amino-4a,5,6,7-tetrahydro-4,1-cyclopenta[d][1,3]thiazin-7a-yl-4-fluorophenyl]-5-difluoromethoxypyrazine-2-carboxamide]",5
29,"N#Cc1ccc(C(=O)Nc2ccc(F)c([C@]34CCCCC[C@H]3CSC(N)=N4)c2)nc1 (relative stereo) [Example 33, (+)-N-[3-((4aR*,9aS*)-2-amino-4a,5,6,7,8,9-hexahydro-4H-cyclohepta[d][1,3]thiazin-9a-yl)-4-fluorophenyl]-5-cyanopyridine-2-carboxamide]",10
30,NC1=N[C@@]2(c3cc(NC(=O)c4ccncn4)ccc3F)CCC[C@H]2CS1 [Example 233],86
